Results on 3 compounds are retold here after US20170351014A1, “NEAR-INFRARED ABSORPTION COMPOSITION, CURED FILM, NEAR-INFRARED ABSORPTION FILTER, SOLID-STATE IMAGING DEVICE, AND INFRARED SENSOR” (FUJIFILM Corporation, priority 2015, published 2017).

Common to all, as to assay type: physicochemical
The nature of data set [1]: Near-infrared shieldability evaluation of cured film. Conditions: cured film 1.0 μm, Resin 1, transmittance at 785 nm. On the procedure: (§1) A near-infrared absorption composition was prepared by mixing according to the following composition. The solid content of the composition was 31 mass %, and the content of the near-infrared absorption substance with respect to the total solid content of the composition was 7.5 mass %.
(§2) Each composition was applied to a glass substrate (1737 manufactured by Corning Inc.) using a spin coater such that a film thickness after drying was 1.0 μm, and a heating treatment (pre-baking) was performed thereon for 120 seconds using a hot plate at 100° C.
(§3) Next, entire surface exposure was performed at 500 mJ/cm2 using an i-ray stepper exposure device FPA-3000i5+(manufactured by Canon Inc.). Next, paddle development was performed for 60 seconds at 23° C. using a developing machine (CD-2060, manufactured by FUJIFILM Electronics Materials Co., Ltd.), and a rinsing treatment was performed with pure water. Then, spray drying was performed thereon. Using a hot plate at 200° C., a heating treatment (post-baking) was performed for 300 seconds to obtain a cured film.
The transmittance of each cured film at the maximum absorption wavelength was measured using a spectrophotometer U-4100 (manufactured by Hitachi High-Technologies Corporation). The near-infrared shieldability was evaluated based on the following standards.
A: Transmittance at 785 nm≦10%
D: 40%<Transmittance at 785 nm

Data set [2] can be described thus: Maximum absorption wavelength and absorbance ratio of film formed from near-infrared absorption composition. Conditions: film on glass. The method, then: A near-infrared absorption composition was prepared by mixing according to the following composition.
Each composition was applied to a glass substrate (1737 manufactured by Corning Inc.) using a spin coater, and a heating treatment was performed thereon for 120 seconds using a hot plate at 120° C.
(§4) A maximum absorption wavelength of each film and an absorbance ratio as a value obtained by dividing an absorbance at a wavelength of 555 nm by an absorbance at the maximum absorption wavelength were measured using a spectrophotometer U-4100 (manufactured by Hitachi High-Technologies Corporation).

Data set [3] can be described thus: Visible transparency evaluation of cured film. The conditions noted are these: cured film 1.0 μm, Resin 1, minimum transmittance at 500 to 600 nm. The method, then: as §1, §2, §3
The transmittance of each cured film at a wavelength of 500 to 600 nm was measured using a spectrophotometer U-4100 (manufactured by Hitachi High-Technologies Corporation). The visible transparency was evaluated based on the following standards.
A: 80% 5 Minimum value of transmittance at wavelength of 500 to 600 nm
B: 70%: Minimum value of transmittance at wavelength of 500 to 600 nm<80%
C: 60%: Minimum value of transmittance at wavelength of 500 to 600 nm<70%
D: Minimum value of transmittance at wavelength of 500 to 600 nm<60%

The nature of data set [4]: Maximum absorption wavelength and absorbance ratio of cured film. Conditions: cured film 1.0 μm, Resin 1. The method, then:
as §4, §1, §2, §3

Data set [5] can be described thus: Solubility of compound to propylene glycol monomethyl ether acetate (PGMEA). Conditions: PGMEA at 25° C. On the procedure:
The solubility of each compound to propylene glycol monomethyl ether acetate (PGMEA) at 25° C. was evaluated based on the following standards.
A: The solubility of the compound to PGMEA at 25° C. is 2 mass % or greater.

Setting [6] is: Resin A (benzyl methacrylate/methyl methacrylate copolymer), 120° C. 120 seconds.

`COB(OC)n1c(-c2ccccc2-c2ccccc2)c2/c(=C(\C#N)c3nc4ccc(Cl)cc4o3)n(B(OC)OC)c(-c3ccccc3-c3ccccc3)c2/c1=C(\C#N)c1nc2ccc(Cl)cc2o1` [Compound D-5]: the “Near-Infrared Shieldability” value in data set [1] is “B (10%<Transmittance at 785 nm≦25%)”. Also, the results for the “Absorbance Ratio (555 nm/λmax)” value in data set [2] (Resin A) and in data set [4] were 0.14 and 0.15, respectively. For the same compound, the “Maximum Absorption Wavelength” value is 790 nm in data set [2] (setting [6]) and 780 nm in data set [4]. Further, the “Visible Transparency” value in data set [3] is recorded as “C (60%: Minimum value of transmittance at wavelength of 500 to 600 nm<70%)”.

With `CCCCCCCCOc1ccc(-c2c3/c(=C(\C#N)c4cc5cc(C(C)(C)C)ccc5cn4)n(B(c4ccccc4)c4ccccc4)c(-c4ccc(OCCCCCCCC)cc4)c3/c(=C(\C#N)c3cc4cc(C(C)(C)C)ccc4cn3)n2B(c2ccccc2)c2ccccc2)cc1` [Compound A-100], the “Near-Infrared Shieldability” value in data set [1] is reported as “D (40%<Transmittance at 785 nm)”. Also, the entries for the “Absorbance Ratio (555 nm/λmax)” value in data set [2] (Resin A), in data set [2] (Resin B (polycaprolactone)) and in data set [4] were 0.11, 0.11 and 0.12, respectively. The “Maximum Absorption Wavelength” value in data set [2] (setting [6]) is recorded as 860 nm; in data set [2] (Resin B (polycaprolactone)), 863 nm; in data set [4], 855 nm. Besides, the “Visible Transparency” value in data set [3] is reported as “B (70%: Minimum value of transmittance at wavelength of 500 to 600 nm<80%)”. Also, the Solubility result in data set [5] is “C (The solubility of the compound to PGMEA at 25 °C is less than 0.5 mass %.)”.

Consider `CCCCCCCCOc1ccc(-c2c3/c(=C(\C#N)c4nc(C)cc(C)n4)n(B(c4ccccc4)c4ccccc4)c(-c4ccc(OCCCCCCCC)cc4)c3/c(=C(\C#N)c3nc(C)cc(C)n3)n2B(c2ccccc2)c2ccccc2)cc1` [Compound A-12], for which, in data set [1], the “Near-Infrared Shieldability” value is on record as “B (10%<Transmittance at 785 nm≦25%)”. Further, the “Absorbance Ratio (555 nm/λmax)” value in data set [2] (Resin A) and in data set [4] was 0.10 throughout. Besides, the “Maximum Absorption Wavelength” value in data set [2] (setting [6]) turned out to be 763 nm; in data set [4] it was 762 nm. Further, the “Visible Transparency” value in data set [3] was “B (70%: Minimum value of transmittance at wavelength of 500 to 600 nm<80%)”. Besides, the Solubility entry in data set [5] was “B (The solubility of the compound to PGMEA at 25 °C is 0.5 mass % to less than 2 mass %.)”. The “Solubility (in words)” value in data set [5] is listed as “excellent solubility”.
